Results taken from patent US20170050957A1, “4-AMINO-6-(HETEROCYCLIC)PICOLINATES AND 6-AMINO-2-(HETEROCYCLIC)PYRIMIDINE-4-CARBOXYLATES AND THEIR USE AS HERBICIDES” (Dow AgroSciences LLC, priority 2013, published 2017).
Where two headings read alike, the source gives them in different places.

How the values were obtained:
[1] = system: Key Broadleaf Weed and Crop Species; experiment: Post-emergent Test II herbicidal activity (Table 15); assay type: in vivo; settings: post-emergence, 336 h, 14 d; for pest or weed control at 35 g/ha: 35 g ai/ha; for pest or weed control at 70 g/ha: 70 g ai/ha; for pest or weed control at 140 g/ha: 140 g ai/ha
How it was run: (§1)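 Greenhouse-grown seedlings at first/second true leaf receive a track spray at 187 L/ha, using a highest rate plus two-fold serial dilutions down to 1/16×. Watering is by subirrigation to avoid wash-off. Percent injury (0-100) is judged by eye at 14 d against untreated plants.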

[2] = system: Key Grass and Sedge Weeds as well as Grass Crops; experiment: Post-emergent Test II herbicidal activity (Table 16); assay type: in vivo; settings: post-emergence, 336 h, 14 d; for pest or weed control at 35 g/ha: 35 g ai/ha; for pest or weed control at 70 g/ha: 70 g ai/ha; for pest or weed control at 140 g/ha: 140 g ai/ha
How it was run: as §1

[3] = Abutilon theophrasti, velvetleaf (Abutilon theophrasti), read-out: Visual Growth Reduction (%) 14 Days After Application, ABUTH
[4] = Amaranthus retroflexus, redroot pigweed (Amaranthus retroflexus), read-out: Visual Growth Reduction (%) 14 Days After Application, AMARE
[5] = Brassica napus, oilseed rape, canola (Brassica napus), read-out: Visual Growth Reduction (%) 14 Days After Application, BRSNN
[6] = Chenopodium album, lambsquarters (Chenopodium album), read-out: Visual Growth Reduction (%) 14 Days After Application, CHEAL
[7] = Euphorbia heterophylla, wild poinsettia (Euphorbia heterophylla), read-out: Visual Growth Reduction (%) 14 Days After Application, EPHHL
[8] = Helianthus annuus, sunflower (Helianthus annuus), read-out: Visual Growth Reduction (%) 14 Days After Application, HELAN
[9] = Cyperus esculentus, yellow nutsedge (Cyperus esculentus), read-out: Visual Growth Reduction (%) 14 Days After Application, CYPES
[10] = Echinochloa crus-galli, barnyardgrass (Echinochloa crus-galli), read-out: Visual Growth Reduction (%) 14 Days After Application, ECHCG
[11] = Oryza sativa, rice (Oryza sativa), read-out: Visual Growth Reduction (%) 14 Days After Application, ORYSA
[12] = Setaria faberi, giant foxtail (Setaria faberi), read-out: Visual Growth Reduction (%) 14 Days After Application, SETFA
[13] = Triticum aestivum, wheat, spring (Triticum aestivum), read-out: Visual Growth Reduction (%) 14 Days After Application, TRZAS
[14] = Zea mays, maize, corn (Zea mays), read-out: Visual Growth Reduction (%) 14 Days After Application, ZEAMX

With `COC(=O)c1nc(-c2ccc(Cl)c3[nH]ccc23)cc(N)c1Cl` [Compound 1.44] the pest or weed control at 35 g/ha [1, 3] was 0 to 29%, the pest or weed control at 70 g/ha [1, 3] was 75 to 84% and the pest or weed control at 140 g/ha [1, 3] was 85 to 94%. It also gave a pest or weed control at 35 g/ha [1, 4] of 85 to 94%, a pest or weed control at 70 g/ha [1, 4] of 95 to 100% and a pest or weed control at 140 g/ha [1, 4] of 95 to 100%. The pest or weed control at 35 g/ha [1, 5] was 0 to 29%, the pest or weed control at 70 g/ha [1, 5] was 0 to 29% and the pest or weed control at 140 g/ha [1, 5] was 30 to 44%. The pest or weed control at 35 g/ha [1, 6] was 85 to 94%, the pest or weed control at 70 g/ha [1, 6] was 85 to 94% and the pest or weed control at 140 g/ha [1, 6] was 95 to 100%. For the same compound, the pest or weed control at 35 g/ha [1, 7] was 45 to 59%, the pest or weed control at 70 g/ha [1, 7] was 75 to 84% and the pest or weed control at 140 g/ha [1, 7] was 85 to 94%. For the same compound, the pest or weed control at 35 g/ha [1, 8] was 0 to 29%, the pest or weed control at 70 g/ha [1, 8] was 0 to 29% and the pest or weed control at 140 g/ha [1, 8] was 0 to 29%. The pest or weed control at 35 g/ha [2, 9] was 0 to 29%, the pest or weed control at 70 g/ha [2, 9] was 0 to 29% and the pest or weed control at 140 g/ha [2, 9] was 0 to 29%. It also gave a pest or weed control at 35 g/ha [2, 10] of 0 to 29%, a pest or weed control at 70 g/ha [2, 10] of 0 to 29% and a pest or weed control at 140 g/ha [2, 10] of 0 to 29%. It also gave a pest or weed control at 35 g/ha [2, 11] of 0 to 29%, a pest or weed control at 70 g/ha [2, 11] of 0 to 29% and a pest or weed control at 140 g/ha [2, 11] of 0 to 29%. It also gave a pest or weed control at 35 g/ha [2, 12] of 0 to 29%, a pest or weed control at 70 g/ha [2, 12] of 0 to 29% and a pest or weed control at 140 g/ha [2, 12] of 0 to 29%. The pest or weed control at 35 g/ha [2, 13] was 0 to 29%, the pest or weed control at 70 g/ha [2, 13] was 0 to 29% and the pest or weed control at 140 g/ha [2, 13] was 0 to 29%. The pest or weed control at 35 g/ha [2, 14] was 0 to 29%, the pest or weed control at 70 g/ha [2, 14] was 0 to 29% and the pest or weed control at 140 g/ha [2, 14] was 0 to 29%. For the same compound, the melting point was 116 °C.
